Structures are written as SMILES. pIC50: −log10 of the molar value.

For data set [1], the system named is secretion of gastric acid. The data set is described as follows: Inhibitory action against the secretion of gastric acid (Test II), Heidenhain pouch dogs, histamine stimulated. It counts as in vivo, male beagle dogs. Particulars: Canis lupus familiaris, Heidenhain pouch dog, histamine 160 ug/kg/hr, intravenous, read-out: Suppresive action on secretion of gastric acid (%). How it is done:
Heidenhain pouch dogs produced from male beagle dogs were fasted. To the dogs were then administered intarvenously histamine hydrochloride (gastric juice secretion inducing agent) continuously at a dose of 160 ug/kg/hr. The gastric juice was collected at an interval of 15 min. to measure the amount of gastric juice and acid output to determine an acid secretion amount (mEq/15 min).
The test compound was intravenously administered to the dogs at one hour after the initiation of histamine administration.
The inhibitory action was determined by comparing the acid secretion amount, with the corresponding amount of a control dog prepared in the same manner except that a vehicle alone was administered.

Data set [2] deals with T1, H^+ +K^+ ATPase (Sus scrofa, UniProt P19156).
T1 construct: Gastric acid secretory cells of a pig gastric mucosa were isolated; from tissue; host or cells: pig gastric mucosa, vesicles from gastric acid secretory cells (Ficoll density gradient)
T1 sequence (P19156 2-1034 limits assumed): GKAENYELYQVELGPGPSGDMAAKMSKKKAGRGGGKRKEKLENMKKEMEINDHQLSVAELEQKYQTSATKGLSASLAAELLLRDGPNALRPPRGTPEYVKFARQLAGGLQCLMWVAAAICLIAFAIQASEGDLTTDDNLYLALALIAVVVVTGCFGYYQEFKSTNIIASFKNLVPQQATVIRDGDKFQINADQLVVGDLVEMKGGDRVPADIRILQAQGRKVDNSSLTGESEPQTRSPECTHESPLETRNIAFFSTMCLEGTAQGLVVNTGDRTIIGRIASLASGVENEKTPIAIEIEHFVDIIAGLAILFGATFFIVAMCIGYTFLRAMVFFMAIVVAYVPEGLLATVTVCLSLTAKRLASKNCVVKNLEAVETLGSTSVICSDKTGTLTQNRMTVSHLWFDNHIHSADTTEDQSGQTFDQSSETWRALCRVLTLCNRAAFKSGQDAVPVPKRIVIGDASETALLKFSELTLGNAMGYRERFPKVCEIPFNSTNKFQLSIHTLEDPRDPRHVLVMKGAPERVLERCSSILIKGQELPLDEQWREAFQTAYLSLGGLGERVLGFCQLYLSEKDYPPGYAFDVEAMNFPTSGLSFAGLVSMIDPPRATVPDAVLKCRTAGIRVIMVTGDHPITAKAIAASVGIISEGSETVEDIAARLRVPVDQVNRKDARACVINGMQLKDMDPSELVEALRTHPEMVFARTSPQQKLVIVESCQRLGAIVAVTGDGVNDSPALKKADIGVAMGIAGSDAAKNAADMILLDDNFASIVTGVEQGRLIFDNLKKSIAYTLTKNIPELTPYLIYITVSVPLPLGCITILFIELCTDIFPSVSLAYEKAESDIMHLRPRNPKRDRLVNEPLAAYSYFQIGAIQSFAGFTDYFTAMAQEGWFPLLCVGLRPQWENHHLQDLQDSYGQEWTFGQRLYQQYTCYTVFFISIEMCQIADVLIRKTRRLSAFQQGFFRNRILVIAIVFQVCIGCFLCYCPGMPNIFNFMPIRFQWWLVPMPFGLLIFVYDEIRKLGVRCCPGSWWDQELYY
T1 sequence (P18434 whole entry partner): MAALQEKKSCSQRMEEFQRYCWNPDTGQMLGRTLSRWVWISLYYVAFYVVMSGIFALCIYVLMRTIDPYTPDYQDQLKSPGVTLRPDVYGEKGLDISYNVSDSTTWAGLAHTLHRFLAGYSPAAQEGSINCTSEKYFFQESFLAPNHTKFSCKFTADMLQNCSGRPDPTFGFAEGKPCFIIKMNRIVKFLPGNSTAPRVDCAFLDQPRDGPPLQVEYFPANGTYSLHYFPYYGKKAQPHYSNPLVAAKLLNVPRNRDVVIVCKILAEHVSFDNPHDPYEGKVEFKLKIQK
The data set is described as follows: H+ + K+ ATPase inhibitory effects (b) pig gastric mucosa. It counts as biochemical. The note with it: pig gastric mucosa vesicle; incubated 37° C., 30 min, pH 5.5; read-out: H+ + K+ ATPase inhibitory action (IC50). How it is done: Gastric acid secretory cells of a pig gastric mucosa were isolated in the same manner as in the test for rabbit gastric mucosa. A vesicle containing H^+ +K^+ ATPase was prepared by centrifuging the cells in Ficoll of discontinuous density gradient. The enzyme and each test compound were incubated at 37° C. for 30 min. in a solution which contained 2 mM of a bisTRIS-acetate buffer (pH 5.5). To the resulting mixture were added a solution of 37.5 mM of bisTRIS-acetate buffer solution (pH 7.4), 2 mM of magnesium chloride, 2 mM of ATP and 5 mM of potassium chloride, and the mixture was then heated to 37° C. for 10 min. for performing a reaction. The reaction was terminated by addition of 5% trichloroacetic acid solution, and an inorganic phosphorus liberated was quantitatively measured by Fiske-Subbarow method. The ATPase activity was determined from the obtained inorganic phosphorus value.
(§1) The above procedure was repeated except for not using potassium chloride to determine an ATPase activity in the absence of potassium chloride.
The desired […] ATPase activity was calculated by subtracting the ATPase activity value determined in the absence of KCl from the ATPase activity value determined in the presence of KCl.

The next data set deals with beagle dogs. In words: Acute toxicity test, beagle dogs. In kind it is in vivo. Particulars: oral, 45 mg/kg/day for two weeks. How it is done:
(§2) 2-[(2-Isobutylamino)benzylsulfinyl]imidazole (Example No. 10) was orally administered to rats and beagle dogs at a dose of 45 mg/kg/day for two weeks.

Data set [3] relates to secretion of gastric acid. In words: Inhibitory action against the secretion of gastric acid (Test I), pylorus ligated rats. It counts as in vivo, Male Donryu rats. The note with it: rat, pylorus ligation, intraduodenal, 4 hours, acid output vs control. How it is done: Male Donryu rats having a body weight of 200 to 250 g were fasted (while allowing free access to water) for 24 hrs. in accordance with the conventional method [Shay, H. et al, Gastroenterology, 5, 43-61 (1945)]. Under ether anesthesia the pylorus was ligated and each test compound was administered intraduodenally. Four hours later, each rat was killed and the stomach was removed to collect the gastric juice. The inhibitory action was determined by comparing the acid output which was determined by titration to pH 7.0 with 0.1-N NaOH by means of an automatic titrator, with the corresponding value of control rat prepared in the same manner except that a vehicle alone was administered.

Data set [4] addresses T2, H^+ +K^+ ATPase (Oryctolagus cuniculus, UniProt P27112).
T2 construct: gastric acid secretory cells of a rabbit gastric mucosa were isolated; from tissue; host or cells: rabbit gastric mucosa, vesicles from gastric acid secretory cells (Ficoll density gradient)
In words: H+ + K+ ATPase inhibitory effects (a) rabbit gastric mucosa. In kind it is biochemical. The note with it: rabbit gastric mucosa vesicle; 2×10^-4 M test compound, pH 6.0, 25 min preincubation; read-out: H+ + K+ ATPase inhibitory action (%). How it is done: Following the method of Forte et al (J. Applied Physiol., 32, 714-717 (1972)), gastric acid secretory cells of a rabbit gastric mucosa were isolated. A vesicle containing H^+ +K^+ ATPase was prepared by centrifuging the cells in Ficoll of discontinuous density gradient. After the enzyme was incubated at room temperature for 25 min. in 0.5 ml of a solution which contained 5 mM of an imidazole buffer (pH 6.0) and 2×10^-4 M of each test compound, the mixture was heated to 37° C. The mixture was then allowed to stand for further 5 min. To the mixture was added 0.5 ml of a solution which contained 4 mM of magnesium chloride, 80 mM of an imidazole buffer (pH 7.4), 20 mM of potassium chloride and 4 mM of ATP. The resulting mixture was reacted at 37° C. for 15 min. and 1 ml of a 24% trichloroacetic acid was then added to terminate the reaction. The inorganic phosphorus liberated was quantitatively determined by the method proposed by Taussky and Shorr (J. Biol. Chem., 202, […] (1953)). The ATPase activity was determined from the obtained inorganic phosphorus value.
as §1
The desired K^+ -dependent ATPase activity was calculated by subtracting the ATPase activity value determined in the absence of KCl from the ATPase activity value determined in the presence of KC1.

The next data set concerns rats. In words: Acute toxicity test, rats. The note with it: oral, 45 mg/kg/day for two weeks. It counts as in vivo. How it is done: as §2

T2 sequence (P27112 2-1035 limits assumed): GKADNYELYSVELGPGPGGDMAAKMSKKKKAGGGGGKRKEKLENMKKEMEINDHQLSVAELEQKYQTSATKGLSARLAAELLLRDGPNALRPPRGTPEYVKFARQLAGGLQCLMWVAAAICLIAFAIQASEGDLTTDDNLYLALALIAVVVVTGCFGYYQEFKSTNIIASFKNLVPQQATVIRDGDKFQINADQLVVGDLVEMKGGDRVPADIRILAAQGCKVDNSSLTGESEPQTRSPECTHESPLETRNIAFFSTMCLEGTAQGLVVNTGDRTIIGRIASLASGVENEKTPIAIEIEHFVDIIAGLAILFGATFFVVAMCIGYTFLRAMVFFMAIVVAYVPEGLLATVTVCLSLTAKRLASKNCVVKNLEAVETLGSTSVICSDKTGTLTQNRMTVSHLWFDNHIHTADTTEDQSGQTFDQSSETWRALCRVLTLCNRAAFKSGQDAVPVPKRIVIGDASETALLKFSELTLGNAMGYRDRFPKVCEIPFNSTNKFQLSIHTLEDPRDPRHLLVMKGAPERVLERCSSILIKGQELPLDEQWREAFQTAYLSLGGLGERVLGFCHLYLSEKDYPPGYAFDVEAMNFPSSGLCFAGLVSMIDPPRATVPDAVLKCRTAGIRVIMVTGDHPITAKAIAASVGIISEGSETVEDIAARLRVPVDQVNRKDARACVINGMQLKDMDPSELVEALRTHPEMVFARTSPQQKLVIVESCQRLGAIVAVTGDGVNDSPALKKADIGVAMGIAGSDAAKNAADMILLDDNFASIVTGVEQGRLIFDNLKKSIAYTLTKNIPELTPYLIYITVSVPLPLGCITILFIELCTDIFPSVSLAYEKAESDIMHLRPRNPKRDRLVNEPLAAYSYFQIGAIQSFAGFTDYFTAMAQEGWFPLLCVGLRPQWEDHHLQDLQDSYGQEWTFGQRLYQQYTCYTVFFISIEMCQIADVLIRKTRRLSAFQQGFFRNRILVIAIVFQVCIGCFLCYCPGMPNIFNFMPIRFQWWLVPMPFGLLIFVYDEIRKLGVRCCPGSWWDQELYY
T2 sequence (P18597 whole entry partner): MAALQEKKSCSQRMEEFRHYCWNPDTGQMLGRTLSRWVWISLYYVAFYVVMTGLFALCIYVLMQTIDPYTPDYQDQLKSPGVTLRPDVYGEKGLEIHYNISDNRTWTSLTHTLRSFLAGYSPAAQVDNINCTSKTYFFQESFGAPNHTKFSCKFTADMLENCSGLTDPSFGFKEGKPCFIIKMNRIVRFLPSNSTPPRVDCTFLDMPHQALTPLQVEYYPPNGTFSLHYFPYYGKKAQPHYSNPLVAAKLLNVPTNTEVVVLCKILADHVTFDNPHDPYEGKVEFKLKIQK

Turning to `CNc1ccccc1C[S+]([O-])c1nc2c([nH]1)CCCC2` (stereo not shown) [Example No. 2, 2-(2-methylaminobenzylsulfinyl)-4,5,6,7-tetrahydro-1H-benzimidazole], in data set [1], the inhibition in vivo at 3 mg/kg is 53%. At H^+ +K^+ ATPase [2], the negative logarithm of the IC50 (pIC50) is 5.74.

Take `CNc1ccccc1C[S+]([O-])c1ncc[nH]1` (stereo not shown) [Example No. 8, 2-(2-methylaminobenzylsulfinyl)imidazole]: the negative logarithm of the IC50 (pIC50) at H^+ +K^+ ATPase [2] was 5.55.

`CC(C)CNc1ccccc1CSc1ncc[nH]1` [Example No. 9, 2-[(2-isobutylamino)benzylthio]imidazole]: the inhibition in vivo at 3 mg/kg in data set [1] stood at 11%.

For `CC(C)CNc1ccccc1C[S+]([O-])c1ncc[nH]1` (stereo not shown) [Example No. 10, 2-[(2-isobutylamino)benzylsulfinyl]imidazole], the “Acute toxicity: noticeable change” value in the data set on beagle dogs and with rats was “no noticeable change” in each case. Besides, the figures for the “Suppresive action on secretion of gastric acid (%)” value (“Suppresive action … (%)” for short) in data set [3] (10 mg/kg) and in data set [3] (30 mg/kg) were 56.2% and 87.0%, respectively. The inhibition in vivo at 3 mg/kg in data set [1] was found to be 81%. Besides, at H^+ +K^+ ATPase [4], the inhibition at 200 µM came to 97.2%.

Consider `CNc1ccc(C)cc1C[S+]([O-])c1ncc[nH]1` (stereo not shown) [Example No. 14, 2-[(5-methyl-2-methylamino)benzylsulfinyl]imidazole], for which the “Suppresive action … (%)” value amounted to 82.2% in data set [3] (10 mg/kg) and 98.6% in data set [3] (30 mg/kg). Moreover, the inhibition in vivo at 3 mg/kg in data set [1] stood at 97%. In addition, the inhibition at 200 µM on H^+ +K^+ ATPase [4] was determined as 90.8%.

Regarding `CC(C)Nc1ccccc1C[S+]([O-])c1ncc[nH]1` (stereo not shown) [Example No. 23, 2-[(2-isopropylamino)benzylsulfinyl]imidazole], the inhibition in vivo at 3 mg/kg in data set [1] turned out to be 66%.

In the case of `CCNc1ccccc1C[S+]([O-])c1ncc[nH]1` (stereo not shown) [Example No. 25, 2-[(2-ethylamino)benzylsulfinyl]imidazole], the “Suppresive action … (%)” value was 74.0% in data set [3] (10 mg/kg) and 93.3% in data set [3] (30 mg/kg). Moreover, the inhibition in vivo at 3 mg/kg in data set [1] is 80%. The inhibition at 200 µM at H^+ +K^+ ATPase [4] was 87.5%.

Take `[O-][S+](Cc1ccccc1NCc1ccccc1)c1ncc[nH]1` (stereo not shown) [Example No. 27, 2-[(2-benzylamino)benzylsulfinyl]imidazole]: in data set [1], the inhibition in vivo at 3 mg/kg amounted to 57%.

As to `COc1ccc(NCC(C)C)c(C[S+]([O-])c2ncc[nH]2)c1` (stereo not shown) [Example No. 29, 2-[(2-isobutylamino-5-methoxy)benzylsulfinyl]imidazole], the “Suppresive action … (%)” value in data set [3] (10 mg/kg) was 30.8%. Moreover, the “Suppresive action … (%)” value in data set [3] (30 mg/kg) is given as 89.0%. Further, in data set [1], the inhibition in vivo at 1 mg/kg amounted to 30% and the inhibition in vivo at 3 mg/kg was 81%.

`CNc1cccc(C)c1C[S+]([O-])c1ncc[nH]1` (stereo not shown) [Example No. 33, 2-[(2-methyl-6-methylamino)benzylsulfinyl]imidazole]: the “Suppresive action … (%)” value stood at 92.9% in data set [3] (10 mg/kg) and 91.4% in data set [3] (30 mg/kg). Moreover, the inhibition in vivo at 1 mg/kg in data set [1] stood at 70%.

As to `CNc1ccccc1C[S+]([O-])c1nc(C)c[nH]1` (stereo not shown) [Example No. 37, 4-methyl-2-[(2-methylamino)benzylsulfinyl]imidazole], the inhibition in vivo at 3 mg/kg in data set [1] amounted to 50%.

In the case of `COc1cccc(NCC(C)C)c1C[S+]([O-])c1ncc[nH]1` (stereo not shown) [Example No. 41, 2-[(2-isobutylamino-6-methoxy)benzylsulfinyl]imidazole], in data set [1], the inhibition in vivo at 1 mg/kg turned out to be 66% and the inhibition in vivo at 3 mg/kg was determined as 97%.

In the case of `Cc1cccc(NCC(C)C)c1C[S+]([O-])c1ncc[nH]1` (stereo not shown) [Example No. 45, 2-[(2-isobutylamino-6-methyl)benzylsulfinyl]imidazole], the results for the “Suppresive action … (%)” value in data set [3] (10 mg/kg) and in data set [3] (30 mg/kg) were 86.8% and 90.3%, respectively. In addition, the inhibition in vivo at 1 mg/kg in data set [1] came to 82%.

With `Cc1ccc(C[S+]([O-])c2ncc[nH]2)c(NCC(C)C)c1` (stereo not shown) [Example No. 47, 2-[(2-isobutylamino-4-methyl)benzylsulfinyl]imidazole], the inhibition in vivo at 1 mg/kg in data set [1] was 87%.

What is called pIC50 is the IC50 on a negative log10 scale, so that one unit is a factor of ten.
